Results taken from paper PMC9421655, “Novel Antagonist of the Type 2 Lysophosphatidic Acid Receptor (LPA2), UCM-14216, Ameliorates Spinal Cord Injury in Mice” (Journal of Medicinal Chemistry, 2022).

Molecular target: T1, LPA2 (Homo sapiens, UniProt Q9HBW0)
T1 construct: expressed in transfected cells
Assay: Ca2+ mobilization assay, antagonist activity at LPA2
Assay type: cell-based
Parameters: Emax: dose or concentration left out as unconfirmed
Description: Cells stably expressing the corresponding LPA1–3 receptor were grown as described previously.[18] Changes in intracellular calcium levels were measured by using the fluorescent calcium sensitive dye Fluo-4 NW (Invitrogen). RH7777 cells or B103 cells were plated on poly-D-lysine or collagen coated, respectively, black-wall clear-bottom 96-well plates (Corning) at a density of 50 000 cells/well and cultured overnight. The culture medium was then replaced with 100 μL of Fluo-4 NW dye loading solution containing 2.5 μM of probenecid and incubated for 30 min at 37 °C followed by an additional 30 min at rt. […] Fluorescence changes were registered in a FluoStar Optima instrument (BMG Labtech) at 525 nm using an excitation wavelength of 494 nm. […] The data presented are from two to four independent experiments carried out in triplicate or quadruplicate. Dose–response curves were generated and IC50 values calculated by nonlinear regression analysis using Prism software version 5 (GraphPad Software Inc., San Diego, CA, USA).
Figure S2. Dose response curves for compounds 13, 44, 53, 54, and 55. B103 cells stably expressing LPA2 receptor were incubated with different concentrations of the compound under study and […]
Curves were generated with PRISM software version 5 (GraphPad Software Inc, San Diego, CA, USA) using nonlinear regression analysis. Each data point corresponds to the mean±SEM of two to four independent experiments carried out in triplicate or quadruplicate.

T1 sequence (Q9HBW0 whole entry, species assumed): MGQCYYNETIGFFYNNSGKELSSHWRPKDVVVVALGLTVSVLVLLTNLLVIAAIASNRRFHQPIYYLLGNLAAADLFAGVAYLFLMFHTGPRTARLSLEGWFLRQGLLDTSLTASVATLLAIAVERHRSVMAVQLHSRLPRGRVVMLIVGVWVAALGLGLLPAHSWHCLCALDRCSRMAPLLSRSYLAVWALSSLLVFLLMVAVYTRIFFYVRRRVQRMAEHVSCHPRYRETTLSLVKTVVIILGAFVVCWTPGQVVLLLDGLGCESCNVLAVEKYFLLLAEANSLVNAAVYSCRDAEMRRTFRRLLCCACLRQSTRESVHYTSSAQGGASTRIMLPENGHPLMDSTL

## Cc1[nH]nc(-c2ccc(OCc3nnn[nH]3)cc2O)c1Oc1ccc(Cl)cc1Cl [Compound 54]
  Emax: 90 ± 2%
Antagonism of 10 μM LPA, mean ± s.e.m.
  IC50: 1.9 µM
